For this data set, the system named is GVHD in GF B6 BMT recipients. The note with it: mouse, in vivo. The text has this: (A) The details of the experimental design were shown in FIG. 12G to L. Quantification of iron in stool from colon and ileum in Allo B6 and Allo B6 deferasirox at 7 day and 21 day after BMT were shown (Day7, N=2, Day21, Vehicle: N=4, Deferasirox: N=2). (B) The percent of IFNγ+CD4, IFNγ+CD8, and Treg cells in spleen from recipients at day7 after BMT were shown (N=4). (C) The cytokine levels of IFNγ, TNFα, and IL17A in serum from recipients at day7 after BMT were shown (Vehicle: N=3, Deferasirox: N=4). (D to F) GF mice received BMT from BALB/c donor mice. BMT recipients were orally treated with deferasirox (20 mg/kg) and vehicle every day. (D) Hypoxyprobe staining and relative fluorescent intensity in colon from recipients 21 days after BMT (scale bar=50 μm). Three independent experiments were performed. Survival rate (E) and clinical GVHD score (F) of BMT recipients (Syn GF vehicle: N=2, Syn GF deferasirox: N=2, Allo GF vehicle: N=8, Allo GF deferasirox: N=10). The horizontal line in box (C) represents the median with the box bounding the interquartile range. The ends of the whisker lines represent the minimum and maximum values. […]
Because alteration of O2 affects host IECs in addition to the microbiome, we next determined whether restoring intestinal hypoxia by Fe chelation after allo-HSCT mitigated GVHD independent of its impact on dysbiosis. […]

As to `O=C(O)c1ccc(-n2nc(-c3ccccc3O)nc2-c2ccccc2O)cc1` [deferasirox], the “survival and GVHD of syngeneic GF mice” value is “survived without GVHD”.

(Values after patent US20260232774A1, “COMPOSITIONS AND METHODS FOR TREATING INTESTINAL MICROBIOME DYSBIOSIS” (The Regents of the University of Michigan, priority 2023, published 2026).)
